{"source": "ChEMBL document CHEMBL1201862", "about": "“PubChem BioAssay data set” (2004)", "key": {"[1]": {"assay": "Counterscreen for IDE inhibitors: Luminescence-based cell-based high throughput dose response assay to identify compounds that are cytotoxic to HEK cells. [Related pubchem assays: 434962 (Primary screen (IDE inhibitors in singlicate)), 449730 (Counterscreen (Cytotoxicity in triplicate)), 435028 (Confirmation (IDE inhibitors in triplicate)) …", "assay_type": "functional", "conditions": "HEK293"}, "Insulin-degrading enzyme": {"target": "T1, Insulin-degrading enzyme (Homo sapiens, UniProt P14735)", "T1 sequence (P14735 whole entry)": "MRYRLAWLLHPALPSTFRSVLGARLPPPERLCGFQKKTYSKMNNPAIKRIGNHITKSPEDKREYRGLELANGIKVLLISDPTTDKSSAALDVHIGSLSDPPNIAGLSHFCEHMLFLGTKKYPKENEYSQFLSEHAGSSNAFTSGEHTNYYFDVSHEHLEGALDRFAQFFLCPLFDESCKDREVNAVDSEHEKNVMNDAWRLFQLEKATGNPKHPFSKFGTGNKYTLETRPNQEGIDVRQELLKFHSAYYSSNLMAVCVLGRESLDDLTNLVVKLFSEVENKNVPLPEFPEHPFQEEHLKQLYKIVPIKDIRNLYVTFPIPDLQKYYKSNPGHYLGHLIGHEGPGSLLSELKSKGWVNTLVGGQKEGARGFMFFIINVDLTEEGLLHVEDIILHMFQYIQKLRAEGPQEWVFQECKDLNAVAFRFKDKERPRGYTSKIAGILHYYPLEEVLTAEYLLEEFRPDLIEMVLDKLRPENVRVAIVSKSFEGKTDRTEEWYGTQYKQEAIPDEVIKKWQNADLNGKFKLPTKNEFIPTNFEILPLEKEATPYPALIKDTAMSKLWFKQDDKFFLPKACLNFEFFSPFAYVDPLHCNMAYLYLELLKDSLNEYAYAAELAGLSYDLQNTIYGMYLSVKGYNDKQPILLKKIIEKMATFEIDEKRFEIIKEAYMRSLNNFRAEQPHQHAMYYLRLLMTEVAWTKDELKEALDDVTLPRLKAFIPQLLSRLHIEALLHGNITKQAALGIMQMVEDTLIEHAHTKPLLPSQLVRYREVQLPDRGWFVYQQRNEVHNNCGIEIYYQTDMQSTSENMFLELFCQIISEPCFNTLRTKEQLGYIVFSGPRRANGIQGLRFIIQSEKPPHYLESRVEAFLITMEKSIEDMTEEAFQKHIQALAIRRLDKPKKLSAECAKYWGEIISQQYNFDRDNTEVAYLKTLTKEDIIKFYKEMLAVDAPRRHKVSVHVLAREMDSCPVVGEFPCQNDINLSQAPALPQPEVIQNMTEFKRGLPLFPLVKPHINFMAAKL", "assay": "Dose Response: Fluorescence polarization-based cell-based high throughput dose response assay for inhibitors of insulin-degrading enzyme (IDE). [Related pubchem assays: 434962 (Primary screen (IDE inhibitors in singlicate)), 449730 (Counterscreen (Cytotoxicity in triplicate)), 435028 (Confirmation (IDE inhibitors in triplicate)), 434984 (Summary …", "assay_type": "functional"}, "Vero [2]": {"tested_on": "Vero", "assay": "cells", "assay_type": "functional", "conditions": "Chlorocebus sabaeus"}, "[3]": {"target": "Luciferin 4-monooxygenase (Photinus pyralis, UniProt P08659)", "sequence (P08659 whole entry)": "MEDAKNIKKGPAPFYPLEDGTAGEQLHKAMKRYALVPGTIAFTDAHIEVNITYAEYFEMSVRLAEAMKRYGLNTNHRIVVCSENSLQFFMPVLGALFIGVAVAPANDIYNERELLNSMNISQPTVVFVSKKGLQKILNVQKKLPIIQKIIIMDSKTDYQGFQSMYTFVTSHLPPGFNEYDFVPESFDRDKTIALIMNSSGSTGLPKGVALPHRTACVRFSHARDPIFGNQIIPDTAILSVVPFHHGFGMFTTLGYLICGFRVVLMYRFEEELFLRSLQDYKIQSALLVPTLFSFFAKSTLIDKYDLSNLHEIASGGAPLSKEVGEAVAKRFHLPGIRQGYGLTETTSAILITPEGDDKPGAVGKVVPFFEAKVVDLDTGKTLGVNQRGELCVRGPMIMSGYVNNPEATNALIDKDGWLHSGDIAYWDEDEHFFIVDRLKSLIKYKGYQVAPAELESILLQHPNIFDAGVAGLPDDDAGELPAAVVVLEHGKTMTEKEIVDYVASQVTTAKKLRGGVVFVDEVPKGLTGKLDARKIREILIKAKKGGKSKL", "assay": "inhibition of purified Photinus pyralis luciferase – biochemical, luminescence, dose response (AID 1891)"}, "[4]": {"target": "T2, Heat shock factor protein 1 (Mus musculus, UniProt P38532)", "T2 sequence (P38532 whole entry)": "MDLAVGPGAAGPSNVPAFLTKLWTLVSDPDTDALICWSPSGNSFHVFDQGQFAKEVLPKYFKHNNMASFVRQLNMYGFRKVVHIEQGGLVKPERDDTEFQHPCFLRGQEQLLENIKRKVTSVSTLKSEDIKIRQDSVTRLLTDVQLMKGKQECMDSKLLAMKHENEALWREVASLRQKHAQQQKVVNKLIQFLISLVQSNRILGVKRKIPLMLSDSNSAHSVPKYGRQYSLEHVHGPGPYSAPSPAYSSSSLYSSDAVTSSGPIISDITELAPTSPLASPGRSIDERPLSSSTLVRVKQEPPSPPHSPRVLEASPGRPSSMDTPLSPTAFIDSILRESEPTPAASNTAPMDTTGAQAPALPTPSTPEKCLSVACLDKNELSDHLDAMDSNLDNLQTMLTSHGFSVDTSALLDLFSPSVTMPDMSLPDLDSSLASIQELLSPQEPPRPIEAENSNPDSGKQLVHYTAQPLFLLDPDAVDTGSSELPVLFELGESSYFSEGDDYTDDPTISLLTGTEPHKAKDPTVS", "assay": "decrease of HSF1-responsive luciferase luminescence – cell-based, NIH3T3, dose retest, confirmation (AID 2382);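 further: NIH3T3 fibroblasts with HSF1-driven luciferase reporter stressed by proteasome inhibitor MG132; luminescence from HSF1-driven luciferase expression after 8 hours of MG132 stress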", "assay_type": "functional"}, "[5]": {"assay": "luciferase reporter signal suppression in cells – H4 neuroglioma cells, luminescence, dose response (AID 1990)", "assay_type": "functional, cell-based"}, "[6]": {"assay": "Luminescence Cell-Based Dose Confirmation HTS to Identify Inhibitors of Platelet Dense Granule Release. [Related pubchem assays: 1663 (Primary HTS), 1678 (Summary of Project)]", "assay_type": "functional"}, "[7]": {"assay": "luciferase reporter signal reduction – luminescence, H4-C neuroglioblastoma cells, dose response (AID 2458);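 further: H4 neuroglioblastoma cells stably carrying a luciferase reporter gene fusion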", "assay_type": "functional, cell-based"}, "cells": {"assay": "cells", "assay_type": "functional, cell-based"}, "[8]": {"assay": "alpha-synuclein stem-loop luciferase translation blockers – H4 neuroglioma cells, luminescence, confirmation (AID 1988)", "assay_type": "functional, cell-based"}, "[9]": {"assay": "alpha-synuclein stem-loop translation blockers – luminescence, H4 neuroglioblastoma cells, dose confirmation, confirmation (AID 2454);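 further: potency for inhibition of the luciferase signal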", "assay_type": "functional, cell-based"}, "[10]": {"assay": "Luminescence Cell-Based Dose Response HTS to Identify Inhibitors of 5'UTR Stem-Loop Driven Prion Protein mRNA Translation in H4 Neuroglioblastoma Cells. [Related pubchem assays: 1827 (Project Summary), 1813 (Primary HTS)]", "assay_type": "functional"}, "[11]": {"assay": "Luminescence-based counterscreen assay for KLF5 inhibitors: dose response cell-based high throughput screening assay to identify cytotoxic compounds using the IEC-6 intestinal epithelial cell line. [Related pubchem assays: 1700 (Primary screen.), 1834 (Confirmation screen.), 1858 (Summary AID.), 1905 (Counterscreen.)]", "assay_type": "functional"}, "[12]": {"assay": "reduction of Shn3 3'UTR-driven luciferase in osteoblasts – cell-based, Clone20 osteoblasts, firefly luciferase, cherry-picked, dose response (AID 624132)", "assay_type": "functional"}, "[13]": {"assay": "loss of viability in HepG2 cells – cell-based, CellTiter-Glo, cherry-picked, cytotoxicity control for Shn3 inhibitor project, dose response (AID 624134)", "assay_type": "functional"}, "Vero [14]": {"tested_on": "Vero", "assay": "cells", "assay_type": "functional, cell-based", "conditions": "Chlorocebus sabaeus"}, "Bcl-2-like protein 10": {"target": "T3, Bcl-2-like protein 10 (Homo sapiens, UniProt Q9HD36)", "T3 sequence (Q9HD36 whole entry)": "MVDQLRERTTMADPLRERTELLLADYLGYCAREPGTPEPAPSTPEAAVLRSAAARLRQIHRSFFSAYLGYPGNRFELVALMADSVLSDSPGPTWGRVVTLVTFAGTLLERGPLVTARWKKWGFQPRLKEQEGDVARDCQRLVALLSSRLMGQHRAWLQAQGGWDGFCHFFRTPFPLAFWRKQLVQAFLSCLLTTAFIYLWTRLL", "assay": "Concentration-response of Bcl-B inhibitors by biochemical FP with TR3 (AID 1243)", "assay_type": "functional"}, "Aminopeptidase N": {"target": "T4, Aminopeptidase N (Plasmodium falciparum FcB1/Columbia, UniProt O96935)", "T4 sequence (O96935 whole entry)": "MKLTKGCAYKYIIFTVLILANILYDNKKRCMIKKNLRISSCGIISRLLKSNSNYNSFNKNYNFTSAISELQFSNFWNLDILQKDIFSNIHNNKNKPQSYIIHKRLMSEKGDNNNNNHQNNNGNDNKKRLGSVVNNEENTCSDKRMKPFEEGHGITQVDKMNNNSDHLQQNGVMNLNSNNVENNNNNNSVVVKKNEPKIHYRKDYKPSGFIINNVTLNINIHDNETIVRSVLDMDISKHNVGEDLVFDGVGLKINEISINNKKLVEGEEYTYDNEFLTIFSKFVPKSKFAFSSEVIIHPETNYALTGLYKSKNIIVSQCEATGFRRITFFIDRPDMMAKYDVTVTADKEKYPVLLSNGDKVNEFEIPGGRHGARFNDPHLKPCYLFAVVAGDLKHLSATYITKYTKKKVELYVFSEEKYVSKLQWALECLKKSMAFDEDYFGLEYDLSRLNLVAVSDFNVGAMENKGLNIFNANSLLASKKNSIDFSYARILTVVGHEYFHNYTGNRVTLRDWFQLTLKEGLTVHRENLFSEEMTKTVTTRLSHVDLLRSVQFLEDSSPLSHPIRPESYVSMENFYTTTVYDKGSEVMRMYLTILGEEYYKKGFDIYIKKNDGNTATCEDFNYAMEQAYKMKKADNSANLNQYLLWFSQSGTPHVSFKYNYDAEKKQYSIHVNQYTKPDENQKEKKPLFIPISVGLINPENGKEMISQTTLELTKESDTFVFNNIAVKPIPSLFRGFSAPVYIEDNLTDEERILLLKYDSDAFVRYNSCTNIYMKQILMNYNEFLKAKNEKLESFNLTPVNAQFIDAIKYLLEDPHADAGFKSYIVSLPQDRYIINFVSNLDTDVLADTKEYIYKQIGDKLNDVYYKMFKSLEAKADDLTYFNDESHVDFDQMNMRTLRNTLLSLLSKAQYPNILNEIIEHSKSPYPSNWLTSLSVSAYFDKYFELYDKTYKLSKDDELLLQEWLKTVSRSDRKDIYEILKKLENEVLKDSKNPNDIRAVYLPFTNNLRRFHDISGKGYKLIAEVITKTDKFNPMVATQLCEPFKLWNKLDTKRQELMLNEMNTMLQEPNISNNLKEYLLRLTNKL", "assay": "malaria alanyl aminopeptidase activity blockers – biochemical, fluorogenic H-Leu-NHMec substrate, 1536-well (AID 1445)", "design": "species or system Plasmodium falciparum 3D7, 3D7"}, "[15]": {"assay": "antiviral protection against BTV-induced cell death – arbovirus, BSR cells, confirmation (AID 1250);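 further: protection from viral cytopathic effect measured as cell viability by ATP luminescence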", "assay_type": "functional"}, "[16]": {"target": "Lysosomal acid glucosylceramidase (Homo sapiens, UniProt P04062)", "sequence (P04062 whole entry)": "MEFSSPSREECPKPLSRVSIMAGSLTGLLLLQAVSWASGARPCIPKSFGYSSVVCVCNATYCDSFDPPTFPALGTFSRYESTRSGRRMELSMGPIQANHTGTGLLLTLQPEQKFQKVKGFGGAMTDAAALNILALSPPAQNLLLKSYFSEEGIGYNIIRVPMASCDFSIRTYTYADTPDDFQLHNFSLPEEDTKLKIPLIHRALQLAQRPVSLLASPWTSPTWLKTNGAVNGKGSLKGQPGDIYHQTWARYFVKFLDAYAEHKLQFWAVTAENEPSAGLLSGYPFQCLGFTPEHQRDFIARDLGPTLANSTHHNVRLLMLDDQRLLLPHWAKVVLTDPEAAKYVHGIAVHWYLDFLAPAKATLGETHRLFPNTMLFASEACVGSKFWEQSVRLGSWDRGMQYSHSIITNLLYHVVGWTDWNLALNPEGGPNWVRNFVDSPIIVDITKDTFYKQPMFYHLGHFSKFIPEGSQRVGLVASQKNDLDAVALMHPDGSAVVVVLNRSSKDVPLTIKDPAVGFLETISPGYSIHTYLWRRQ", "assay": "Dose response cell-based high throughput screening assay to identify enhancers of beta-glucosidase activity. [Related pubchem assays: 784 ]", "assay_type": "functional"}}, "note": "Active and inactive are the calls of the source."}
{"smiles": "Cc1cccc(N2CCN(C(=O)c3cccc(N4C(=O)C5CC=CC(C)C5C4=O)c3)CC2)c1C", "note": "(stereo not given)", "values": [{"measurement": "IC50", "setting": "[1]", "value": "23.8 µM (not active)"}, {"measurement": "IC50", "setting": "Insulin-degrading enzyme", "value": "4 µM (active)"}]}
{"smiles": "CN1CCN(c2ccc(-c3ccc4ccccc4n3)cc2)CC1", "values": [{"measurement": "CC50", "setting": "Vero [2]", "value": "> 25 µM (active)"}, {"measurement": "EC50", "setting": "[3]", "value": "0.953 µM (active)"}, {"measurement": "EC50", "setting": "[4]", "value": "< 0.16 µM (active)"}, {"measurement": "EC50", "setting": "[5]", "value": "< 0.195 µM (active)"}, {"measurement": "EC50", "setting": "[6]", "value": "1.66 µM (active)"}, {"measurement": "EC50", "setting": "[7]", "value": "0.134 µM (active)"}, {"measurement": "EC50", "setting": "cells", "value": "0.123 µM (active)"}, {"measurement": "EC50", "setting": "[8]", "value": "< 0.1 µM (active)"}, {"measurement": "EC50", "setting": "[9]", "value": "0.039 µM (active)"}, {"measurement": "EC50", "setting": "[10]", "value": "< 0.1 µM (active)"}, {"measurement": "IC50", "setting": "[11]", "value": "26.6 µM (not active)"}, {"measurement": "AC50", "setting": "[12]", "value": "2.73 µM (active)"}, {"measurement": "AC50", "setting": "[13]", "value": "22.6 µM (active)"}, {"measurement": "IC50", "setting": "Vero [14]", "value": "> 25 µM (active)"}]}
{"smiles": "C(=N\\c1ccc(/N=C/c2ccccn2)cc1)/c1ccccn1", "values": [{"measurement": "EC50", "setting": "Bcl-2-like protein 10", "value": "4.39 µM (active)"}]}
{"smiles": "O=C(Nc1scc(-c2cccs2)c1C(=O)O)c1cccs1", "values": [{"measurement": "IC50", "setting": "Aminopeptidase N", "value": "49.2 µM (active)"}, {"measurement": "IC50", "setting": "[15]", "value": "24 µM (active)"}]}
{"smiles": "O=C1Nc2ccccc2C(O)(C(=O)NC2CC2)N1c1ccc(Cl)c(Cl)c1", "note": "(stereo not given)", "values": [{"measurement": "EC50", "setting": "[16]", "value": "> 50 µM (not active)"}]}
